According to patent US12410211B2, “V1A receptor partial agonist and method of use” (PharmaIN Corporation, priority 2020, dated 2025):
Where two headings read alike, the source gives them in different places. Marks after values point to notes of the source that are not given here. Where a SMILES comes first, the peptide text is derived from it. Bridges are numbered along the chain shown (N, C = ends). [ ]: non-standard residue; d: D form. Aad = N[C@@H](CCCC(=O)O)C(=O)O; Dap = NC[C@H](N)C(=O)O; Mpa = O=C(O)CCS

Columns and labels:
[1] = biological target: T1, V1a receptor (Homo sapiens, UniProt P37288); experiment: V1a Human Vasopressin GPCR Cell Based Agonist Calcium Flux Assay; conditions: for Emax: read-out: V1a Highest agonist effect (% of AVP)
T1 construct: host or cells: CHO cells
T1 sequence (P37288 whole entry): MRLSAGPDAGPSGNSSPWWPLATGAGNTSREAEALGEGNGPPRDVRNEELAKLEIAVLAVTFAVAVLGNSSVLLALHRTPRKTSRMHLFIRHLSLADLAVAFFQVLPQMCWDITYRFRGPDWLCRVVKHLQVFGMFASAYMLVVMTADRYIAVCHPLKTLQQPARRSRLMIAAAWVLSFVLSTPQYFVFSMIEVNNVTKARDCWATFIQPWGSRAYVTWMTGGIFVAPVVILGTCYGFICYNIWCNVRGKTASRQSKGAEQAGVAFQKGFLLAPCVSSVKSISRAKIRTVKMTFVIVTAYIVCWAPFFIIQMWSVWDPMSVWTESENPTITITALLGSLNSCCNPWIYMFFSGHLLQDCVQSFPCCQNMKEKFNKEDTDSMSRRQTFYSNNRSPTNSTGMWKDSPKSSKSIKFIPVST
Procedure: Peptides of Formula (I) include Mpa-Tyr-Phe-Hgn-Asn-Cys-Pro-Lys(X)a-Gly-NH2 [SEQ ID NO. 24]; where (X)a is a peptide with “a” residues and each residue X is independently selected from Gly, and a D- or L-amino acid version of Ala, Lys, Orn, Glu, and Asp, where “a” is 0-10. V1a Human Vasopressin GPCR Cell Based Agonist Calcium Flux Assay were conducted at Eurofins Cerep SA (France) on a fee for service basis. Human recombinant CHO cells expressing human V1 receptors were distributed in microplates. Intracellular calcium signal was detected by fluorimetry, and the signal was acquired before and after addition of a known agonist concentration. The following agonist concentrations were tested (nM); 0.0128, 0.064, 0.32, 1.6, 8, 40, 200, and 1,000. […] All assays were performed in duplicate. Changes in fluorescence intensity reflected changes in the concentration of free cytosolic calcium. […] The half-maximal effective concentration (EC50) was determined by a non-linear regression analysis of the concentration-response curves generated with mean replicate values using Hill equation curve fitting (Cerep, I'Evescault, France).
V1a Human Vasopressin GPCR Cell Based Agonist Calcium Flux Assay were conducted using human recombinant CHO cells expressing human V1 receptor. Briefly, human recombinant CHO cells expressing human V1 receptor were distributed in microplates at 4.5×10^4 cells/well. The fluorescent probe (Fluo4 Direct, Invitrogen) mixed with probenicid in HBSS buffer (Invitrogen) complemented with 20 mM HEPES (Invitrogen) (pH 7.4) is then added into each well and equilibrated with the cells for 60 min at 37° C. then 15 min at 22° C. Thereafter, the assay plates are positioned in a microplate reader (CellLux, PerkinElmer) which is used for the addition of the test compound, reference agonist or HBSS buffer (basal control), and the measurements of changes in fluorescence intensity which varies proportionally to the free cytosolic Ca^2+ ion concentration. The following agonist concentrations were tested (nM), 0.0128, 0.064, 0.32, 1.6, 8, 40, 200, and 1,000. […] All assays were performed in duplicate. Changes in fluorescence intensity reflected changes in the concentration of free cytosolic calcium. […] Referring to FIG. 3 and Table 4, the half-maximal effective concentration (EC50) was determined by non-linear regression analysis of the concentration-response curves generated with mean replicate values using Hill equation curve fitting (Cerep, I'Evescault, France).

[2] = Therapeutic index (NOAEL/NOEL): paleness, lethargy, ataxia observation in Sprague-Dawley rats (Example 7); type: in vivo; conditions: for NOAEL at 24 h: male, Sprague-Dawley
Source text: As used herein, the term “therapeutic index” (TI; also referred to as therapeutic ratio) is a quantitative measure of the relative safety of a drug. […] For the purpose of the present application, lethargy is a lack of energy and/or sleepiness which is visually observed in rats as a lack of mobility, such as a lack of mobility even in the presence of human activity. For the purpose of present specification, peripheral vasoconstriction is visually observed by a paleness of the extremities (e.g., skin of hands, feet, ears, and lips). In rats, peripheral vasoconstriction is determined by a side-by-side comparison of ear paleness in treated subjects (e.g., Sprague Dawley rats, a white rat with easily visualizable changes in redness/paleness) vs. untreated control subjects. The V1a agonist (or partial agonist) with a high therapeutic index will have a better safety profile than that with a low therapeutic index by providing a wider margin of safety for dosing during the treatment of the disease. This NOAEL/NOEL ratio, being a quantitative measure of the relative safety, is a comparison of the amount of a therapeutic agent that causes the therapeutic effect (useful effect, vasoconstriction for the purpose of the present specification) to the amount that causes toxicity. A V1a agonist that causes severe vasoconstriction will affect not only the peripheral vessels, with several layer of smooth muscles, but also other vessels present in other organs (e.g., heart, lungs, kidney, brain) and this will result in observed lethargy and eventually ataxia. A partial agonist is less likely to reach such an extreme level of vasoconstriction and is believed to have a higher therapeutic index.
In this study, 8 to 10 weeks male Sprague-Dawley rats (Charles River; Wilmington, MA) under isoflurane anesthesia (n=3 or 6) were intravenously (IV) or subcutaneously (SC) injected or administered with various test articles. Prior to administration of test articles, the injection area was clipped free of fur, to allow for clear visualization of the dose site, and animal weight was measured and recorded. Animals were housed two per cage. […] Lethargy is when the animal eyes cannot fully open and is associated deep breathing and limited of movement even in the presence of human.

[3] = Table 3, CHO cells expressing human V1 receptor, read-out: Estimated V1a EC50 (nM), n = 2
[4] = S.C., at the Marked adverse effect dose
[5] = S.C., at the Mild adverse effect dose
[6] = in vivo, sc, S.C., rat, read-out: Highest dose with no-observed adverse effect level without lethargy (NOAEL)

SMILES	EC50 [1, 3] [nM]	Emax ([1]; Table 3, n = 2) [%]	Paleness (Duration, hrs; SD) [2, 4]	Paleness (Duration, hrs; SD) [2, 5]	Paleness (Duration, hrs; SD) ([2]; S.C., at the NOAEL dose)	Paleness (Duration, hrs; SD) ([2]; S.C., at the NOEL dose)	Highest dose with no-observed effect level or paleness (NOEL) ([2]; S.C., rat) [mg/kg]	NOAEL/NOEL (therapeutic index) ([2]; S.C., rat)	NOAEL at 24 h [2, 6] [mg/kg]	Marked adverse effect (Lowest dose first showed Ataxia) ([2]; rat, in vivo, sc) [mg/kg]	Mild adverse effect (Lowest dose first showed Lethargy) ([2]; rat, in vivo, sc) [mg/kg]	EC50 ([1]; FIG. 2 / FIG. 3 legend, n=2, read-out: EC50 for V1a receptor) [nM]	EC50 ([1]; Table 3, cells printed in μM, read-out: Estimated V1a EC50, n = 2) [nM]	NOAEL [2, 6] [mg/kg]	Ataxia (duration, hrs; SD) ([2]; rat, in vivo, sc)
NCC(=O)NCC(=O)NCC(=O)NCC(=O)NCC(=O)NCC(=O)NCC(=O)NCCCC[C@H](NC(=O)[C@@H]1CCCN1C(=O)[C@@H]1CSSCCC(=O)N[C@@H](Cc2ccc(O)cc2)C(=O)N[C@@H](Cc2ccccc2)C(=O)N[C@@H](CCCC(N)=O)C(=O)N[C@@H](CC(N)=O)C(=O)N1)C(=O)NCC(N)=O [SEQ ID NO. 14, Mpa-Tyr-Phe-Hgn-Asn-Cys-Pro-Lys(X)a-Gly-NH2; (X)a = (Gly)7]	30.9	26.1	(>6.44)* hrs	(>6.39)* hrs	(5.86 ± 0.13) hrs	None Observed	0.0015	100	0.15	1.5	0.5	–	–	–	–
NCC(=O)NCC(=O)NCC(=O)NCC(=O)NCC(=O)NCC(=O)NCC(=O)NCC(=O)NCCCC[C@H](NC(=O)[C@@H]1CCCN1C(=O)[C@@H]1CSSCCC(=O)N[C@@H](Cc2ccc(O)cc2)C(=O)N[C@@H](Cc2ccccc2)C(=O)N[C@@H](CCCC(N)=O)C(=O)N[C@@H](CC(N)=O)C(=O)N1)C(=O)NCC(N)=O [SEQ ID NO. 15, Mpa-Tyr-Phe-Hgn-Asn-Cys-Pro-Lys(X)a-Gly-NH2; (X)a = (Gly)8]	226	24.8	(>6.19)* hrs	(>6.17)* hrs	(5.68 ± 0.06) hrs	None Observed	0.0015	100	0.15	1.5	0.5	–	–	–	–
NCC(=O)NCC(=O)NCC(=O)NCC(=O)NCC(=O)NCC(=O)NCC(=O)NCC(=O)NCC(=O)NCCCC[C@H](NC(=O)[C@@H]1CCCN1C(=O)[C@@H]1CSSCCC(=O)N[C@@H](Cc2ccc(O)cc2)C(=O)N[C@@H](Cc2ccccc2)C(=O)N[C@@H](CCCC(N)=O)C(=O)N[C@@H](CC(N)=O)C(=O)N1)C(=O)NCC(N)=O [SEQ ID NO. 16, Mpa-Tyr-Phe-Hgn-Asn-Cys-Pro-Lys(X)a-Gly-NH2; (X)a = (Gly)9]	–	28.1	(>6.99)* hrs	(>6.14)* hrs	(7.14 ± 0.11) hrs	None observed	0.005	100	0.5	5.0	1.5	105	–	–	–
NC[C@H](NC(=O)[C@@H]1CCCN1C(=O)[C@@H]1CSSCCC(=O)N[C@@H](Cc2ccc(O)cc2)C(=O)N[C@@H](Cc2ccccc2)C(=O)N[C@@H](CCCC(N)=O)C(=O)N[C@@H](CC(N)=O)C(=O)N1)C(=O)NCC(N)=O [SEQ ID NO. 17, Mpa-Tyr-Phe-Hgn-Asn-Cys-Pro-Dap-Gly-NH2] ([Mpa]YF[Aad](NH2)NCP[Dap]G-NH2; disulfide 1-6)	–	3.5	(>6.18)* hrs	(>5.92)* hrs	(6.11 ± 0.07) hrs	None observed	0.014	34	–	>9.95	4.78	–	> 10000	0.478	None observed
